In US20250228832A1, “METHODS FOR TREATING DISORDERS AMELIORATED BY MUSCARINIC RECEPTOR ACTIVATION” (KARUNA THERAPEUTICS, INC., priority 2022, published 2025):
Like-named read-outs stand apart in the source and are kept apart here.

Tests used:
human M4 receptor = target: T1, human M4 receptor (Homo sapiens, UniProt P08173); assay: SPA GTP (GTPgS) binding curve shift assay, M4; format: biochemical
T1 construct: expressed in transfected cells
T1 sequence (P08173 1-479): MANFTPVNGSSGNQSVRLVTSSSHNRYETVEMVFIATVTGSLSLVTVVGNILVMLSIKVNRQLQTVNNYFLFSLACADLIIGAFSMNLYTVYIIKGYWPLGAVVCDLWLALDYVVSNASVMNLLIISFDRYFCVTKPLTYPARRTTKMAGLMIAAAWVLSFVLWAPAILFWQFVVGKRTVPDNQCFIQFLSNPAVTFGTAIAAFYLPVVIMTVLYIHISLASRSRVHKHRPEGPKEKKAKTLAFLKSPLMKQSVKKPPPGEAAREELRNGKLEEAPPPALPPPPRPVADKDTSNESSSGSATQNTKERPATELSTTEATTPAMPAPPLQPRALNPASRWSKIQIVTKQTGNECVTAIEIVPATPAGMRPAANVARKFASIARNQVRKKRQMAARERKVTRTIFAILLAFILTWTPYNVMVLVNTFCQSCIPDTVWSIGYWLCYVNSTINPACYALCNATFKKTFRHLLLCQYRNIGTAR
Description: Membranes were prepared for GTPgS binding assays from CHO-K1 cells stably expressing human M2 or human M4 receptors. Cells were grown in 5-layer cell culture flasks. Cells were washed with 50 mL of PBS and then dissociated with 0.05% trypsin. Dissociated cells were then collected by centrifugation at 650×g for 8 min at 4° C. Pellets were rewashed in PBS by centrifugation and resuspended in 30 mL of 20 mM HEPES, 10 mM EDTA, pH 7.4. After sitting on ice for 30 min, membranes were collected by centrifugation at 50000×g for 15 min at 4° C., resuspended in 30 mL of 20 mM HEPES, 0.1 mM EDTA, pH 7.4, and collected again by centrifugation. Pellets were then washed twice by centrifugation in 30 mL of 20 mM HEPES, pH 7.4, and stored at −80° C. until the day of the assay. On the day of the assay, pellets were thawed on ice and resuspended in 1 mL of 20 mM HEPES, pH 7.4, 10 mM MgCl2, and 100 mM NaCl using Dounce homogenization.
According to Promega guidelines, membrane protein concentration was determined by BCA protein assay (Promega, Madison, WI).
On the day of the assay, serial dilutions of test PAM compounds were brought up in assay buffer (20 mM HEPES, 10 mM MgCl2; see Table 4 for NaCl concentrations) at four times the final assay concentration. […] of membrane homogenates (containing […] of membrane protein) were prepared in assay buffer supplemented with GDP at 4× final assay concentration (see Table 4 for GDP concentrations) and dispensed into 96 well polypropylene, U-bottom Greiner plates. Membrane plates were incubated for 10 min at room temperature with gentle shaking. Then, 25 μL of test compounds were added to assay plates. Plates were then incubated, with shaking, for an additional 10-15 min. Then, 25 μL of diluted agonists serially diluted in assay buffer at 4× final assay concentration was added to assay plates. Plates were then incubated, with shaking, for an additional 10-15 min. Next, […] of 0.4 nM ^35S-GTP (Perkin Elmer, Waltham, MA) in assay buffer was added to assay mixtures. The binding reaction was left on the shaker for 1 h at room temperature. Membranes in assay reactions were then transferred to GF/C filter plates (UniFilter, Perkin Elmer) and washed three times using FilterMate Harvester (Perkin Elmer) with cold assay buffer containing no GDP. Filter plates were then dried at 40° C. overnight, and […] of Beta Plate Scintillation liquid was added. Plates were top and bottom sealed before being read on the TopCount scintillation counter (Perkin Elmer, Waltham, MA).
(§1) Raw data for all assays was transmitted directly from plate readers into the Beacon database for processing. All assay plates contained positive and negative control wells for data normalization and scaling. […] All control wells contained DMSO at a final assay concentration that matched the test compound wells.
For GTPgS assays, the negative control wells were defined as 0% response. The highest response in a plate was scaled to 1, representing 100% response. Data from test compound wells was scaled to these controls and are reported as % control values. This was done to allow for subsequent GraphPad cooperativity analysis, setting the maximal response at no more than 1.

human M5 receptor = target: T2, human M5 receptor (Homo sapiens, UniProt P08912); assay: HTRF IP-One curve shift assay, M5; format: cell-based; details: M5
T2 construct: expressed in transfected cells
T2 sequence (P08912 1-532): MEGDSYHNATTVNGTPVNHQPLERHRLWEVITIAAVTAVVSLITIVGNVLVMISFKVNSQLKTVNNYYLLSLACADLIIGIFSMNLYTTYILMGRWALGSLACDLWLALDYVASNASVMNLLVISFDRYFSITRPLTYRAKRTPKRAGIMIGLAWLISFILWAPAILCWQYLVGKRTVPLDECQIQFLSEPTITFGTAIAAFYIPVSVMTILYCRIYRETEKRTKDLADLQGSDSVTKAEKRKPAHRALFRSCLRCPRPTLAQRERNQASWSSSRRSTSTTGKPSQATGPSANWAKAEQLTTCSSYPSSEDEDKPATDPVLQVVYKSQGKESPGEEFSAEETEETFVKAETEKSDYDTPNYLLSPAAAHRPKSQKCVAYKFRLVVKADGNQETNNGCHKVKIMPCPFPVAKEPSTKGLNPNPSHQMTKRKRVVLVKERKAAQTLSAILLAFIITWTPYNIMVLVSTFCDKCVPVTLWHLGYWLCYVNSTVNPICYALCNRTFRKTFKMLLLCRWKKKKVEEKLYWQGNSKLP
Description: HTRF IP-One assays were performed using frozen cell aliquots prepared from CHO-K1 cell lines stably expressing human M1, M3, or M5 receptors. Cells were frozen following typical cell freezing protocols. […] Dissociated cells were quenched in full media and collected by centrifugation at 290×g for 5 min. […] 1 mL aliquots of cells were dispensed into cryovial tubes and frozen in a controlled rate cryo-freezer container at −80° C. Cells were stored at −80° C. (or in liquid nitrogen if stored for at least six months) until the day of the assay.
On the day before the assay, frozen cells were rapidly thawed in a 37° C. water bath, brought up in 20 mL of full media, and collected via centrifugation at 290×g for 5 min. […] Next, […] of cells (10,000 cells/well) were dispensed into 384-well coming plates in triplicate. Cells were incubated overnight in a 37° C., 5% CO2 cell incubator.
Then, 2 μL of test compounds were added to the cells and incubated for 10 min at 37° C. in a 5% CO2 cell incubator. Next, 2 μL of diluted agonists serially diluted in assay buffer at 7× final assay concentration was added to assay plates. Finally, assay plates were incubated for two hours at 37° C. in a 5% CO2 cell incubator.
Six μL of IP-1 detection reagents (IP-One Gq HTRF kit, Cisbio Cat #62IPAPEJ) were dispensed to the cells. First, the plates were incubated for two hours at room temperature (IP-One detection reagents were made according to Cisbio protocol). Then, plates were read on an Envision plate reader following the Cisbio guidelines.
as §1
Counts from the standard curve wells were used to generate a sigmoidal standard curve, which was used to transform the raw counts from each well on the plate (scaling control wells and compound wells) into a pmol/well IP1 value.

With CC(=O)OCC[N+](C)(C)C [acetylcholine, reference compound] the Emax (human M4 receptor; MK-4710 concentration 0 nM) was 67.6%, the Emax at […] (human M4 receptor; MK-4710 concentration […]) was 76.8% and the Emax (human M5 receptor; Emraclidine concentration 41.2 nM, read-out: Emax) was 77.7%. It also gave an Emax at […] (human M5 receptor; Emraclidine concentration […], read-out: Emax) of 72.3%, an Emax (human M5 receptor; MK-4710 concentration 0 nM) of 71.2% and an Emax (human M5 receptor; MK-4710 concentration 1110 nM, read-out: Emax) of 78.1%. For the same compound, the Emax (human M5 receptor; MK-4710 concentration 3330 nM, read-out: Emax) was 78.8% and the Emax at […] (human M5 receptor; MK-4710 concentration […], read-out: Emax) was 77.7%.
